How the values were obtained:
Experiment in all cases: relative viability (nuclei count vs DMSO), 5 days (fraction); higher = more cells survive
Selisistat + Decitabine = compound: C1CC(C2=C(C1)C3=C(N2)C=CC(=C3)Cl)C(=O)N [Selisistat] + Nc1ncn([C@H]2C[C@H](O)[C@@H](CO)O2)c(=O)n1 [Decitabine] (partner 2 µM)
In short: (§1)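 A single step with final 0.05% Triton X-100, 1% formaldehyde and 1 ug/ml Hoechst fixed the cells and stained nuclei 5 days after treatment. Lung cancer cell lines in 1536-well plates had been treated by pin tool the day after seeding with one drug alone or a fixed anchor-drug dose plus five library-drug doses (not always all listed) in √10 steps, and nuclei were counted on 4× images. Relative viability is the ratio of nuclei in treated wells to nuclei in vehicle wells, taken as the median of duplicate plates.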

Selisistat + Luminespib = compound: C1CC(C2=C(C1)C3=C(N2)C=CC(=C3)Cl)C(=O)N [Selisistat] + CCNC(=O)c1noc(-c2cc(C(C)C)c(O)cc2O)c1-c1ccc(CN2CCOCC2)cc1 [Luminespib] (partner 0.01 µM)
In short: as §1

Selisistat + Phenformin = compound: C1CC(C2=C(C1)C3=C(N2)C=CC(=C3)Cl)C(=O)N [Selisistat] + N=C(N)NC(=N)NCCc1ccccc1 [Phenformin] (partner 250 µM)
In short: as §1

Serdemetan + Linsitinib = compound: c1ccc2c(CCNc3ccc(Nc4ccncc4)cc3)c[nH]c2c1 [Serdemetan] + C[C@]1(O)C[C@@H](c2nc(-c3ccc4ccc(-c5ccccc5)nc4c3)c3c(N)nccn32)C1 [Linsitinib] (partner 1 µM)
In short: as §1

Cell Line | relative viability (Selisistat + Decitabine; first compound 0.4 µM) | relative viability (Selisistat + Decitabine; first compound 1.265 µM) | relative viability (Selisistat + Decitabine; first compound 4 µM) | relative viability (Selisistat + Decitabine; first compound 12.65 µM) | relative viability (Selisistat + Decitabine; first compound 40 µM) | relative viability (Selisistat + Luminespib; first compound 0.4 µM) | relative viability (Selisistat + Luminespib; first compound 1.265 µM) | relative viability (Selisistat + Luminespib; first compound 4 µM) | relative viability (Selisistat + Luminespib; first compound 12.65 µM) | relative viability (Selisistat + Luminespib; first compound 40 µM) | relative viability (Selisistat + Phenformin; first compound 0.4 µM) | relative viability (Selisistat + Phenformin; first compound 1.265 µM) | relative viability (Selisistat + Phenformin; first compound 4 µM) | relative viability (Selisistat + Phenformin; first compound 12.65 µM) | relative viability (Selisistat + Phenformin; first compound 40 µM) | relative viability (Serdemetan + Linsitinib; first compound 0.04 µM) | relative viability (Serdemetan + Linsitinib; first compound 0.1265 µM) | relative viability (Serdemetan + Linsitinib; first compound 0.4 µM) | relative viability (Serdemetan + Linsitinib; first compound 1.265 µM) | relative viability (Serdemetan + Linsitinib; first compound 4 µM)
NCI-H1355 | 0.336 | 0.383 | 0.345 | 0.338 | 0.388 | 0.739 | 0.834 | 0.596 | 0.683 | 0.774 | 0.488 | 0.486 | 0.433 | 0.465 | 0.462 | 0.82 | 0.711 | 0.746 | 0.75 | 0.683
H3255 | 0.624 | 0.628 | 0.562 | 0.578 | 0.61 | 0.807 | 0.79 | 0.948 | 0.773 | 0.819 | 0.375 | 0.363 | 0.327 | 0.405 | 0.374 | 0.938 | 0.832 | 0.931 | 1.03 | 0.814
NCI-H1993 | 0.647 | 0.597 |  | 0.655 | 0.546 | 0.868 | 0.685 | 0.831 | 1.06 | 0.846 | 0.518 | 0.545 | 0.528 | 0.556 | 0.537 | 0.688 | 0.648 | 0.677 |  | 0.713
NCI-H1734 | 0.562 | 0.436 | 0.45 | 0.556 | 0.455 | 0.173 | 0.194 | 0.223 | 0.208 | 0.216 | 0.442 | 0.377 | 0.324 | 0.382 | 0.356 | 0.702 |  | 0.299 | 0.182 | 0.194
HOP-62 | 0.22 | 0.211 | 0.215 | 0.227 | 0.192 | 0.951 | 0.967 | 0.886 | 0.88 | 1.01 | 0.663 | 0.619 | 0.777 | 0.64 | 0.676 | 1.02 | 0.934 | 0.968 | 0.738 | 0.47
LOU-NH91 | 0.815 | 0.795 | 0.784 | 0.787 | 0.788 | 0.269 | 0.322 | 0.348 | 0.336 | 0.406 | 0.822 | 0.691 | 0.627 | 0.71 | 0.728 | 0.962 | 1.01 |  | 0.894 | 0.83
PC-14 | 0.201 | 0.217 | 0.221 | 0.237 | 0.243 | 0.141 | 0.151 |  | 0.221 | 0.311 | 0.522 | 0.415 | 0.314 | 0.488 | 0.643 | 0.901 | 0.952 | 0.909 | 0.78 | 0.805
NCI-H1437 | 0.61 | 0.597 | 0.528 | 0.503 | 0.543 | 1.1 | 1.12 | 1.09 | 1.1 | 0.922 | 0.354 | 0.317 | 0.278 | 0.29 | 0.308 | 0.993 | 1.02 | 0.975 | 0.861 | 0.687
NCI-H460 | 0.474 | 0.499 | 0.571 | 0.467 | 0.513 | 0.0268 | 0.0346 | 0.0301 | 0.0377 | 0.0409 | 0.598 | 0.565 | 0.366 | 0.495 | 0.571 | 0.747 | 0.71 | 0.537 | 0.153 | 0.104
NCI-H1666 | 0.825 | 0.699 | 0.692 | 0.687 | 0.778 | 1.05 | 1 | 0.969 | 0.995 | 0.878 | 0.514 | 0.606 | 0.582 | 0.538 | 0.529 | 0.944 | 0.85 | 0.761 | 0.784 | 0.724
NCI-H1651 | 0.673 | 0.699 | 0.484 | 0.58 | 0.624 | 1.06 | 0.827 | 0.836 | 0.848 | 0.802 | 0.381 | 0.293 | 0.274 | 0.307 | 0.284 | 0.822 | 0.724 | 0.509 | 0.355 | 0.268
NCI-H1755 | 0.787 | 0.741 | 0.74 | 0.729 | 0.781 | 0.415 | 0.315 | 0.619 | 0.31 | 0.377 | 0.645 | 0.615 | 0.585 | 0.559 | 0.618 | 0.956 | 0.941 | 0.881 | 0.556 | 0.653
NCI-H661 | 0.592 | 0.521 | 0.428 | 0.46 | 0.442 | 0.977 | 0.966 | 0.928 | 0.833 | 0.732 | 0.27 | 0.263 | 0.282 | 0.286 | 0.251 | 0.521 | 0.635 | 0.606 | 0.563 | 0.418
HARA | 0.777 | 0.529 |  | 0.48 | 0.647 | 0.909 | 1.02 | 0.846 | 0.584 | 1.04 | 0.412 | 0.476 | 0.412 | 0.396 | 0.379 | 0.948 | 0.865 | 0.854 |  | 0.441
NCI-H596 | 1.07 | 1.02 | 0.862 | 1.09 | 1.07 | 0.981 | 0.938 | 1.08 | 0.668 | 0.775 | 0.742 | 0.816 | 0.584 | 0.593 | 0.716 | 1.14 | 1.04 | 0.789 | 0.623 | 0.541
NCI-H23 | 0.303 | 0.32 |  | 0.328 | 0.355 | 0.188 | 0.203 |  | 0.204 | 0.197 | 0.731 | 0.824 | 0.658 | 0.773 | 0.786 | 0.571 | 0.684 | 0.747 | 0.504 | 0.561
LCLC-97TM1 | 0.24 | 0.219 |  | 0.245 | 0.29 | 0.74 | 0.679 |  | 0.619 | 0.724 | 0.426 | 0.409 |  | 0.362 | 0.461 | 0.211 | 0.172 | 0.186 | 0.12 | 0.181
EPLC-272H | 0.365 | 0.389 |  | 0.382 | 0.364 | 0.213 | 0.409 |  | 0.32 | 0.197 | 0.302 | 0.322 |  | 0.288 | 0.296 | 1.29 | 1.18 | 1.07 | 1 | 0.703
NCI-H1915 | 0.268 | 0.244 | 0.264 | 0.255 | 0.277 | 0.839 | 0.775 | 0.775 | 0.695 | 0.75 | 0.377 | 0.356 | 0.368 | 0.355 | 0.368 | 1.03 | 1.08 | 1.08 | 0.975 | 0.908
NCI-H2405 | 0.881 | 0.78 |  | 0.748 | 0.697 | 0.745 | 0.691 | 0.556 | 0.659 | 0.766 | 0.401 | 0.333 | 0.222 | 0.393 | 0.397 | 0.864 | 0.997 | 0.964 | 0.897 | 0.628
NCI-H322M | 0.812 | 0.708 |  | 0.747 | 0.637 | 0.875 | 0.82 | 0.562 | 0.868 | 0.812 | 0.768 | 0.837 | 0.656 | 0.77 | 0.915 | 0.923 | 0.955 | 0.827 | 0.863 | 0.836
NCI-H1395 | 0.781 | 0.633 |  | 0.657 | 0.809 | 0.871 | 0.682 | 0.702 | 0.66 | 0.455 | 0.509 | 0.432 | 0.427 | 0.42 | 0.42 | 0.993 | 1.17 | 1.09 | 0.874 | 0.638
NCI-H358 | 0.248 | 0.226 | 0.195 | 0.212 | 0.218 | 0.435 | 0.341 |  | 0.469 | 0.471 | 0.358 | 0.281 | 0.186 | 0.332 | 0.412 | 0.672 | 0.781 | 0.679 | 0.465 | 0.651
NCI-H838 | 0.557 | 0.459 | 0.475 | 0.45 | 0.454 | 0.313 | 0.332 | 0.349 | 0.392 | 0.311 | 0.62 | 0.478 | 0.346 | 0.547 | 0.57 | 0.995 | 1.04 | 0.961 | 0.989 | 1.17

Reference: the supplement of paper PMC10307832
